The experiment concerns the target T1, ABL1 Q252H (Homo sapiens, UniProt P00519, Q252H).
T1 construct: purchased Thermo Fisher Scientific (Life Technologies) SelectScreen
Kind of experiment: SelectScreen LanthaScreen. The settings on record: read-out: % displacement. It is filed as binding. The procedure, abridged: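 NU5455 was profiled across the SelectScreen Broad panel of kinase activity and binding assays. Z'LYTE reactions such as CSF1R ran at apparent Km ATP, while the Adapta CAMK1 assay used ATP listed as 10. Values are given as percent.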
(In TR-FRET formats the signal depends on donor and acceptor labels being close together.)

SMILES strings stand for the structures.

Data on one compound can be found in article PMC6934184, “Selective DNA-PKcs inhibition extends the therapeutic index of localized radiotherapy and chemotherapy” (The Journal of Clinical Investigation, 2019).

`CN(C(=O)CN1CCOCC1)c1ccc2sc3c(-c4cccc5c(=O)cc(N6CC7CCC(C6)O7)oc45)cccc3c2c1` [NU5455]: the inhibition at 1 µM came to 1.1%.
